This assay has as its target T1, Angiotensin converting enzyme from rabbit lung (Oryctolagus cuniculus, UniProt P12822).
T1 construct: Angiotensin converting enzyme from rabbit lung (A6778- 0.25 UN), was obtained from Sigma; purchased Sigma A6778; host or cells: rabbit lung tissue
T1 sequence (P12822 34-1310): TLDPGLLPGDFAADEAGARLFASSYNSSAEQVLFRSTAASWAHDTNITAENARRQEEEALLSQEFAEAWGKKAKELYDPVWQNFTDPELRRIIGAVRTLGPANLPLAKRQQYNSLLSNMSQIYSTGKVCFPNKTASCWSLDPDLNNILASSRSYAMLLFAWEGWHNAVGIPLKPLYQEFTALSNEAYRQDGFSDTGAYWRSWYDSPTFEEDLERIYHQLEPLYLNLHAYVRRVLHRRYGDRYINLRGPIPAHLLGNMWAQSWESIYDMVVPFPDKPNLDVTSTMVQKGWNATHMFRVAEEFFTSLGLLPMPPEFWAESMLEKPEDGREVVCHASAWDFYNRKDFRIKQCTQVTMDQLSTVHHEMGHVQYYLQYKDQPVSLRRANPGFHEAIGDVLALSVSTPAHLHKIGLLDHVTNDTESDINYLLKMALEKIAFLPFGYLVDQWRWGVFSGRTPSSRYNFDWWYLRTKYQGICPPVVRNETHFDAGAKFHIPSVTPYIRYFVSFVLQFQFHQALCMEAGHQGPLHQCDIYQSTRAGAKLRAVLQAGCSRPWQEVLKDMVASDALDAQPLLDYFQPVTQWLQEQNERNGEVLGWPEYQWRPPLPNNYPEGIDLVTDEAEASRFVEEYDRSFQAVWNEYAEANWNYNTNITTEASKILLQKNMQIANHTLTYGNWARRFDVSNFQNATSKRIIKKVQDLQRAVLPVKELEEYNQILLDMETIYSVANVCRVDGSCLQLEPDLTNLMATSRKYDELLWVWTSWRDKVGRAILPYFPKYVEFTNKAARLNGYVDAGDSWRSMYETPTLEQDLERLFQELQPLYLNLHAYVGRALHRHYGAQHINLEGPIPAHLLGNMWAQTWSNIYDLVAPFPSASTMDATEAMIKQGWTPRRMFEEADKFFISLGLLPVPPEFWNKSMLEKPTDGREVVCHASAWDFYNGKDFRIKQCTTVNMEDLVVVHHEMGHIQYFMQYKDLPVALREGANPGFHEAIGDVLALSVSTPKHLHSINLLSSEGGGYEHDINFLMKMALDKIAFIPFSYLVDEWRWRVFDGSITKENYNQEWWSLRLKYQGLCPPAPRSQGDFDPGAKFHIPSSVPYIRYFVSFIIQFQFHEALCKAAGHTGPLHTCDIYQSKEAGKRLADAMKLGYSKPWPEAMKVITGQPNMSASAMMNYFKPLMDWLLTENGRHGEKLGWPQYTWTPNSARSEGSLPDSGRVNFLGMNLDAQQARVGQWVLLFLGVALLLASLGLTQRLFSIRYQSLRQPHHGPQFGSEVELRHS
Description: ACE inhibition by synthetic BPPs, fluorescence energy transfer assay with Abz-Phe-Arg-Lys(Dnp)-Pro-OH. Particulars: for ACE inhibition / IC 50, in words: qualitative comparison of the four synthesized peptides; for IC50: rabbit lung ACE, FRET substrate Abz-Phe-Arg-Lys(Dnp)-Pro-OH, Tris/NaCl/ZnCl2 buffer, pH 7.0, 10 min incubation at room temperature, λex 320 nm, λem 420 nm, 5 min, six serial dilutions 0.500-0.002 mM, 5 μl of dilution in assay, repeated five times. In kind it is biochemical. On the procedure: The snake venom of Agkistrodon bilineatus bilineatus, was obtained from Venom Supplies, Australia, and was placed at -20° till further use. The venom was collected from the snakes bred in the farms of Venom Supplies, Australia. All the solvents used were of HPLC grade and were obtained from Merck. The substrate Abz-Phe-Arg-Lys (Dnp)-Pro-OH for angiotensin converting enzyme was obtained from BACHEM. Angiotensin converting enzyme from rabbit lung (A6778- 0.25 UN), was obtained from Sigma. The synthesized peptides ZLWPRPQIPP, ZQWAQGRAPHPP, ZSAPGNEAIPP, ZNWPHPQIPP were purchased from China Peptide company, Shanghai, China. The peptides were 95 % pure, and were kept at -20° till use. The N-terminus of these synthetic peptide is pyroglutame (represented by Z), while the C-terminus is an amino acid with free carboxylic group.
ACE activities in the presence of venom peptides were determined by a fluorescence energy transfer assay using Abz-Phe-Arg-Lys (Dnp)-Pro-OH as a substrate. 1 mg of the substrate was weighed and dissolved in 1 ml DMSO. The exact concentration of the substrate was determined by taking four different volumes of the substrate stock solution, and constructing a standard curve spectrophometrically at 365 nm, using the molar extinction coefficient of the Dnp group ([…] = 17,300 M^−1 cm^−1), according to the Beer’s Lambert Law (A = εDnp x l x c). A stock solution of the enzyme was prepared by suspending 0.25 UN of ACE in 250 μl of the assay buffer (12.10 g Tris-base, 2.92 g NaCl and 1.36 mg ZnCl2 in 1 l of deionised water, pH to 7.0 adjusted with HCl).
In order to determine the IC 50 values of the synthesized peptides, a stock solution (10 mM) of each was prepared in the assay buffer. From the stock solutions, six serial dilutions were prepared for each peptide. The concentrations of the six dilutions were as follows, 0.500 mM, 0.167 mM, 0.056 mM, 0.019 mM, 0.006 mM and 0.002 mM respectively. In the final assay, 85 μl of the assay buffer, 2 μl of the enzyme stock solution, and 5 μl of the dilute peptide solution were added. The mixture was incubated for 10 min at room temperature. The reaction was started by adding 10 μl of the working solution of the substrate (20 μl of the stock +280 μl of the assay buffer). The same procedure was adopted using 5 μl of venom fractions instead of the synthetic peptides. Fluorescence measurements were made at λex = 320 nm and at λem = 420 nm, for 5 min each. These experiments were repeated five times to ensure accuracy of the results.

Where a SMILES comes first, the peptide text is derived from it.

The IC50 is the concentration that gives 50% inhibition. Read a high IC50 as a need for much substance. In turn, `CC[C@H](C)[C@H](NC(=O)[C@H](CCC(N)=O)NC(=O)[C@@H]1CCCN1C(=O)[C@H](CCCNC(=N)N)NC(=O)[C@@H]1CCCN1C(=O)[C@H](Cc1c[nH]c2ccccc12)NC(=O)[C@H](CC(C)C)NC(=O)[C@@H]1CCC(=O)N1)C(=O)N1CCC[C@H]1C(=O)N1CCC[C@H]1C(=O)O` [Inhibitor 1 (P6)] (HELM PEPTIDE1{[Glp].L.W.P.R.P.Q.I.P.P}$$$$V2.0) returned an IC50 of 640 nM. Further, for the setting “listed as ZLWPRPQXPP”, the “ACE inhibition / IC 50, in words” value is listed as “strongest inhibitors”. Under “listed as peptide 6”, the “ACE inhibition / IC 50, in words” value is “low IC 50 values”.

For `C[C@H](NC(=O)[C@H](Cc1c[nH]c2ccccc12)NC(=O)[C@H](CCC(N)=O)NC(=O)[C@@H]1CCC(=O)N1)C(=O)N[C@@H](CCC(N)=O)C(=O)NCC(=O)N[C@@H](CCCNC(=N)N)C(=O)N[C@@H](C)C(=O)N1CCC[C@H]1C(=O)N[C@@H](Cc1c[nH]cn1)C(=O)N1CCC[C@H]1C(=O)N1CCC[C@H]1C(=O)O` [Inhibitor 2 (P7)] (HELM PEPTIDE1{[Glp].Q.W.A.Q.G.R.A.P.H.P.P}$$$$V2.0), the IC50 is 3630 nM. In addition, for the setting “listed as ZQWAQGRAPHPP”, the “ACE inhibition / IC 50, in words” value is “low IC 50 value”. The “ACE inhibition / IC 50, in words” value (listed as peptide 7) is listed as “low IC 50 values”.

As to `CC[C@H](C)[C@H](NC(=O)[C@H](C)NC(=O)[C@H](CCC(=O)O)NC(=O)[C@H](CC(N)=O)NC(=O)CNC(=O)[C@@H]1CCCN1C(=O)[C@H](C)NC(=O)[C@H](CO)NC(=O)[C@@H]1CCC(=O)N1)C(=O)N1CCC[C@H]1C(=O)N1CCC[C@H]1C(=O)O` [Inhibitor 3 (P5)] (HELM PEPTIDE1{[Glp].S.A.P.G.N.E.A.I.P.P}$$$$V2.0), the “ACE inhibition / IC 50, in words” value was “much higher value” and the IC50 was found to be 30000 nM.

Compound `CC[C@H](C)[C@H](NC(=O)[C@H](CCC(N)=O)NC(=O)[C@@H]1CCCN1C(=O)[C@H](Cc1c[nH]cn1)NC(=O)[C@@H]1CCCN1C(=O)[C@H](Cc1c[nH]c2ccccc12)NC(=O)[C@H](CC(N)=O)NC(=O)[C@@H]1CCC(=O)N1)C(=O)N1CCC[C@H]1C(=O)N1CCC[C@H]1C(=O)O` [Inhibitor 4 (P3)] (HELM PEPTIDE1{[Glp].N.W.P.H.P.Q.I.P.P}$$$$V2.0) came in with an IC50 of 760 nM. Moreover, the “ACE inhibition / IC 50, in words” value (listed as ZNWPHPQXPP) is “strongest inhibitors”. The “ACE inhibition / IC 50, in words” value (listed as peptide 5) is “low IC 50 values”.
